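Growth conditions: 96-well plates. Treatment: test compound, 48 hours, 5 concentrations. Analysis: linear interpolation between bracketing concentrations; unreached endpoints set to highest concentration. GI50 marks 50% less growth. Definition used: TGI = concentration required for complete inhibition of growth.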
Experiments:
Experiment in all cases: NCI tumour cell line growth inhibition, 48 h
786-0 renal = system: 786-0 renal
A498 renal = system: A498 renal
A549 NSCLC = system: A549 NSCLC
ACHN renal = system: ACHN renal
BT-549 breast = system: BT-549 breast
CAKI-1 renal = system: CAKI-1 renal
CCRF-CEM leukemia = system: CCRF-CEM leukemia
COLO 205 colon = system: COLO 205 colon
DU-145 prostate = system: DU-145 prostate
EKVX NSCLC = system: EKVX NSCLC
HCC-2998 colon = system: HCC-2998 colon
HCT-116 colon = system: HCT-116 colon
HCT-15 colon = system: HCT-15 colon
HL-60(TB) leukemia = system: HL-60(TB) leukemia
HOP-62 NSCLC = system: HOP-62 NSCLC
HOP-92 NSCLC = system: HOP-92 NSCLC
HS 578T breast = system: HS 578T breast
HT29 colon = system: HT29 colon
IGROV1 ovarian = system: IGROV1 ovarian
K-562 leukemia = system: K-562 leukemia
KM12 colon = system: KM12 colon
LOX IMVI melanoma = system: LOX IMVI melanoma
M14 melanoma = system: M14 melanoma
MALME-3M melanoma = system: MALME-3M melanoma
MCF7 breast = system: MCF7 breast
MDA-MB-231 breast = system: MDA-MB-231 breast
MDA-MB-435 = system: MDA-MB-435
MOLT-4 leukemia = system: MOLT-4 leukemia
NCI-H226 lung = system: NCI-H226 lung
NCI-H23 lung = system: NCI-H23 lung
NCI-H460 lung = system: NCI-H460 lung
NCI-H522 lung = system: NCI-H522 lung
NCI/ADR-RES ovarian = system: NCI/ADR-RES ovarian
OVCAR-3 ovarian = system: OVCAR-3 ovarian
OVCAR-4 ovarian = system: OVCAR-4 ovarian
OVCAR-5 ovarian = system: OVCAR-5 ovarian
OVCAR-8 ovarian = system: OVCAR-8 ovarian
PC-3 prostate = system: PC-3 prostate
RPMI-8226 leukemia = system: RPMI-8226 leukemia
RXF 393 renal = system: RXF 393 renal
SF-268 CNS = system: SF-268 CNS
SF-295 CNS = system: SF-295 CNS
SF-539 CNS = system: SF-539 CNS
SK-MEL-2 melanoma = system: SK-MEL-2 melanoma
SK-MEL-28 melanoma = system: SK-MEL-28 melanoma
SK-MEL-5 melanoma = system: SK-MEL-5 melanoma
SK-OV-3 ovarian = system: SK-OV-3 ovarian
SN12C renal = system: SN12C renal
SNB-19 CNS = system: SNB-19 CNS
SNB-75 CNS = system: SNB-75 CNS
SR leukemia = system: SR leukemia
SW-620 colon = system: SW-620 colon
T-47D breast = system: T-47D breast
TK-10 renal = system: TK-10 renal
U251 CNS = system: U251 CNS
UACC-257 melanoma = system: UACC-257 melanoma
UACC-62 melanoma = system: UACC-62 melanoma
UO-31 renal = system: UO-31 renal

`COc1ccc(-c2nnc(Nc3nc(O)c(C4=c5cc(Br)ccc5=NC4=O)s3)o2)cc1` showed a GI50 (786-0 renal) of 25.1 µM, a TGI (786-0 renal) greater than 77.8 µM and a GI50 (A498 renal) of 12.4 µM. The TGI (A498 renal) was 46.4 µM, the GI50 (A549 NSCLC) was 26.8 µM and the TGI (A549 NSCLC) was greater than 100 µM. For the same compound, the TGI (ACHN renal) was 38.8 µM, the GI50 (BT-549 breast) was 6.49 µM and the TGI (BT-549 breast) was 27.9 µM. The GI50 (CAKI-1 renal) was 17.2 µM, the TGI (CAKI-1 renal) was 50.1 µM and the GI50 (CCRF-CEM leukemia) was 6.79 µM. It also gave a TGI (CCRF-CEM leukemia) of 32.7 µM, a GI50 (COLO 205 colon) of 32 µM and a TGI (COLO 205 colon) greater than 100 µM. The GI50 (DU-145 prostate) was 16.9 µM, the TGI (DU-145 prostate) was greater than 56.3 µM and the GI50 (EKVX NSCLC) was 9.89 µM. For the same compound, the TGI (EKVX NSCLC) was greater than 55.8 µM, the GI50 (HCC-2998 colon) was 1.34 µM and the TGI (HCC-2998 colon) was 33.8 µM. For the same compound, the GI50 (HCT-116 colon) was 25.5 µM, the TGI (HCT-116 colon) was 97.7 µM and the GI50 (HCT-15 colon) was 18.4 µM. The TGI (HCT-15 colon) was greater than 63 µM, the GI50 (HL-60(TB) leukemia) was 0.633 µM and the TGI (HL-60(TB) leukemia) was 9.89 µM. The GI50 (HOP-62 NSCLC) was 24 µM, the TGI (HOP-62 NSCLC) was greater than 71.1 µM and the GI50 (HOP-92 NSCLC) was 21.2 µM. For the same compound, the TGI (HOP-92 NSCLC) was 65.6 µM, the GI50 (HS 578T breast) was 6.92 µM and the TGI (HS 578T breast) was 22.5 µM. The GI50 (HT29 colon) was 35.4 µM, the TGI (HT29 colon) was greater than 100 µM and the GI50 (IGROV1 ovarian) was 2.68 µM. For the same compound, the TGI (IGROV1 ovarian) was 23.8 µM, the GI50 (K-562 leukemia) was 20.6 µM and the TGI (K-562 leukemia) was 75.2 µM. For the same compound, the GI50 (KM12 colon) was 3.54 µM, the TGI (KM12 colon) was 23.5 µM and the GI50 (LOX IMVI melanoma) was 19.8 µM. It also gave a TGI (LOX IMVI melanoma) of 62 µM, a GI50 (M14 melanoma) of 20.1 µM and a TGI (M14 melanoma) of 63.7 µM. The TGI (MALME-3M melanoma) was 3.53 µM, the GI50 (MCF7 breast) was greater than 43.9 µM and the TGI (MCF7 breast) was greater than 100 µM. For the same compound, the GI50 (MDA-MB-231 breast) was 0.421 µM, the TGI (MDA-MB-231 breast) was 10 µM and the GI50 (MDA-MB-435) was 23.8 µM. For the same compound, the TGI (MDA-MB-435) was 57.7 µM, the GI50 (MOLT-4 leukemia) was 3.51 µM and the TGI (MOLT-4 leukemia) was 27.6 µM. It also gave a GI50 (NCI-H226 lung) of 1.02 µM, a TGI (NCI-H226 lung) of 8.35 µM and a GI50 (NCI-H23 lung) of 23.6 µM. The TGI (NCI-H23 lung) was greater than 69.3 µM, the GI50 (NCI-H460 lung) was 22.6 µM and the TGI (NCI-H460 lung) was greater than 100 µM. The GI50 (NCI-H522 lung) was 19.8 µM, the TGI (NCI-H522 lung) was greater than 74.2 µM and the GI50 (NCI/ADR-RES ovarian) was 22.5 µM. For the same compound, the TGI (NCI/ADR-RES ovarian) was greater than 71.8 µM, the GI50 (OVCAR-3 ovarian) was 15.5 µM and the TGI (OVCAR-3 ovarian) was 40.3 µM. For the same compound, the GI50 (OVCAR-4 ovarian) was 27.5 µM, the TGI (OVCAR-4 ovarian) was greater than 100 µM and the GI50 (OVCAR-5 ovarian) was 26.7 µM. It also gave a TGI (OVCAR-5 ovarian) of 80.3 µM, a GI50 (OVCAR-8 ovarian) of 19.3 µM and a TGI (OVCAR-8 ovarian) greater than 76.4 µM. It also gave a GI50 (PC-3 prostate) of 18.1 µM, a TGI (PC-3 prostate) greater than 76.7 µM and a GI50 (RPMI-8226 leukemia) of 17.3 µM. The TGI (RPMI-8226 leukemia) was greater than 66.5 µM, the GI50 (RXF 393 renal) was 5.48 µM and the TGI (RXF 393 renal) was greater than 55.6 µM. The GI50 (SF-268 CNS) was 47.5 µM, the TGI (SF-268 CNS) was greater than 100 µM and the GI50 (SF-295 CNS) was 20.6 µM. It also gave a TGI (SF-295 CNS) of 60.4 µM, a GI50 (SF-539 CNS) of 17.9 µM and a TGI (SF-539 CNS) of 41.3 µM. It also gave a GI50 (SK-MEL-2 melanoma) of 17.3 µM, a TGI (SK-MEL-2 melanoma) of 48.8 µM and a GI50 (SK-MEL-28 melanoma) of 29 µM. It also gave a TGI (SK-MEL-28 melanoma) greater than 100 µM, a GI50 (SK-MEL-5 melanoma) of 18.3 µM and a TGI (SK-MEL-5 melanoma) greater than 59.5 µM. For the same compound, the GI50 (SK-OV-3 ovarian) was 52 µM, the TGI (SK-OV-3 ovarian) was greater than 100 µM and the GI50 (SN12C renal) was 15.5 µM. The TGI (SN12C renal) was 52.8 µM, the GI50 (SNB-19 CNS) was 28.1 µM and the TGI (SNB-19 CNS) was greater than 83.4 µM. The GI50 (SNB-75 CNS) was 21.6 µM, the TGI (SNB-75 CNS) was 75.2 µM and the GI50 (SR leukemia) was 1.6 µM. For the same compound, the TGI (SR leukemia) was 35.9 µM, the GI50 (SW-620 colon) was 14.2 µM and the TGI (SW-620 colon) was greater than 100 µM. For the same compound, the GI50 (T-47D breast) was 41.9 µM, the TGI (T-47D breast) was greater than 100 µM and the GI50 (TK-10 renal) was 18.9 µM. The TGI (TK-10 renal) was 51 µM, the GI50 (U251 CNS) was 15.4 µM and the TGI (U251 CNS) was 30.7 µM. The GI50 (UACC-257 melanoma) was 7.79 µM, the TGI (UACC-257 melanoma) was 56.9 µM and the GI50 (UACC-62 melanoma) was 1.08 µM. It also gave a TGI (UACC-62 melanoma) of 26.7 µM, a GI50 (UO-31 renal) of 19.4 µM and a TGI (UO-31 renal) of 63.1 µM.
